The target in the experiment is myosin light chain kinase (MLCK) (Homo sapiens, UniProt Q15746). The experiment can be described thus: radiometric [γ-33P]ATP kinase assay with peptide substrate KKLNRTLSFAEPG
The experiment is classed as biochemical.

Each structure is given as a SMILES string.

myosin light chain kinase (MLCK), sequence (Q15746 whole entry): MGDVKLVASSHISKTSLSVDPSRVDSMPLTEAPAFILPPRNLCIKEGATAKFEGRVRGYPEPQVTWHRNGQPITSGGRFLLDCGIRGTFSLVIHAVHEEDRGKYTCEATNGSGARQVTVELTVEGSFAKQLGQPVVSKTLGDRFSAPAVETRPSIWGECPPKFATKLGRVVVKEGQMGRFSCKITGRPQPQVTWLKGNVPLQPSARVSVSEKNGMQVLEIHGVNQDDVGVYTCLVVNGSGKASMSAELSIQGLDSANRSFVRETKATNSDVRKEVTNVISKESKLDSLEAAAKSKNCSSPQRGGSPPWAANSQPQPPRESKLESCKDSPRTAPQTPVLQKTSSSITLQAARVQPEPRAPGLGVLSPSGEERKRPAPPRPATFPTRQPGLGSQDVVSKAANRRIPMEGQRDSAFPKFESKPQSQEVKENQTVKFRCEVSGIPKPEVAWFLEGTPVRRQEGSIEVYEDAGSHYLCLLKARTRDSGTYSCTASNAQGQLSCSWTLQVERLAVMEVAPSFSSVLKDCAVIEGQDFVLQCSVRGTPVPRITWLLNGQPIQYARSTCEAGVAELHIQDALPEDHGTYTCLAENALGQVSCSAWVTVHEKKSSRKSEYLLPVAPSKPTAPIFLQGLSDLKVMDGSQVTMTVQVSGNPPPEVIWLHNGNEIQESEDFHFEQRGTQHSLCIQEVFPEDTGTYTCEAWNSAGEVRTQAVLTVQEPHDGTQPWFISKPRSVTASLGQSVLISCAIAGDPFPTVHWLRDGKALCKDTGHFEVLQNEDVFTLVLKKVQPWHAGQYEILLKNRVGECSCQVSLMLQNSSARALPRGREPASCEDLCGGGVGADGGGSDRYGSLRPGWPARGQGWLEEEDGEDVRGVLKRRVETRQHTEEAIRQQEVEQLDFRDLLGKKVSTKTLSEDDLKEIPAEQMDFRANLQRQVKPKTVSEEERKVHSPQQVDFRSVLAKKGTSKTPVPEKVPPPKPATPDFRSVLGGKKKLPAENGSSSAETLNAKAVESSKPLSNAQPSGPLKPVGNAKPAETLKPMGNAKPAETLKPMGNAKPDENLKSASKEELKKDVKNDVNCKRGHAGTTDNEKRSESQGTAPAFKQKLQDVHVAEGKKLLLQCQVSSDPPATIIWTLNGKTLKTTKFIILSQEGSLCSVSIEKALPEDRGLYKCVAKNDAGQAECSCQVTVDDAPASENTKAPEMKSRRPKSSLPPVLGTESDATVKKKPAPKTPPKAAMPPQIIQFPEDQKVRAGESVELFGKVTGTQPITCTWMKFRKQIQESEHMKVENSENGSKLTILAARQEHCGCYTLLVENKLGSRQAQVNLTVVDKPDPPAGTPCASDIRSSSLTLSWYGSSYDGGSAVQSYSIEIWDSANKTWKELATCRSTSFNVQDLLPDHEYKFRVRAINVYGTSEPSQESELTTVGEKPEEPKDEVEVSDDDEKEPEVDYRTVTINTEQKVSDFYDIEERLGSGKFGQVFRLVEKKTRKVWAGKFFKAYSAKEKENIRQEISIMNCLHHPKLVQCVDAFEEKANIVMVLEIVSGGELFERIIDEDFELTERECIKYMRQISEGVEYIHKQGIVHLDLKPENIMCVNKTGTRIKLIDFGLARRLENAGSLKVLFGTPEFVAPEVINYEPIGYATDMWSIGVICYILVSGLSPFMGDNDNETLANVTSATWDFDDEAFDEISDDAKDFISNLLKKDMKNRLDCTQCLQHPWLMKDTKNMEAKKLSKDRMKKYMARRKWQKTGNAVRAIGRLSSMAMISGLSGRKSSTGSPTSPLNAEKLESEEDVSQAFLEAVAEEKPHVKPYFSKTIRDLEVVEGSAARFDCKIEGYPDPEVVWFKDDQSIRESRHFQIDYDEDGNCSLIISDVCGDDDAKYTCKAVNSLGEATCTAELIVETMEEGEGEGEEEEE

Usually IC50 stands for the concentration that inhibits the measured activity by half. A high value points to weaker potency. `CNCc1ccc(-c2[nH]c3cc(F)cc4c3c2CCNC4=O)cc1` [AG014699] displayed an IC50 of 55 µM.
